These results are taken from ChEMBL document CHEMBL5500348, “Novel 6-alkyl-bridged 4-arylalkylpiperazin-1-yl derivatives of azepino[4,3-b]indol-1(2H)-one as potent BChE-selective inhibitors showing protective effects against neurodegenerative insults” (Eur J Med Chem, 2024).

≈ marks a conversion by molar mass, not a printed value. Calls of active or inactive are those of the source. No cut-off for these calls is given here.

Data set [1] has as its target T1, Cholinesterase (Equus caballus, UniProt P81908). Briefly: Inhibition of equine serum BuChE using butyrylthiocholine iodide as substrate preincubated for 20 mins followed by substrate addition and measured after 10 mins by DTNB based Ellman's method. In general terms: DTNB colorimetry detects thiols as they appear.
The target in another data set is Acetylcholinesterase (Electrophorus electricus, UniProt O42275). Kind of data set: Inhibition of electric eel AChE using acetylthiocholine iodide as substrate preincubated for 20 mins followed by substrate addition and measured after 10 mins by DTNB-reagent based Ellman's method.
Acetylcholinesterase, sequence (O42275 whole entry): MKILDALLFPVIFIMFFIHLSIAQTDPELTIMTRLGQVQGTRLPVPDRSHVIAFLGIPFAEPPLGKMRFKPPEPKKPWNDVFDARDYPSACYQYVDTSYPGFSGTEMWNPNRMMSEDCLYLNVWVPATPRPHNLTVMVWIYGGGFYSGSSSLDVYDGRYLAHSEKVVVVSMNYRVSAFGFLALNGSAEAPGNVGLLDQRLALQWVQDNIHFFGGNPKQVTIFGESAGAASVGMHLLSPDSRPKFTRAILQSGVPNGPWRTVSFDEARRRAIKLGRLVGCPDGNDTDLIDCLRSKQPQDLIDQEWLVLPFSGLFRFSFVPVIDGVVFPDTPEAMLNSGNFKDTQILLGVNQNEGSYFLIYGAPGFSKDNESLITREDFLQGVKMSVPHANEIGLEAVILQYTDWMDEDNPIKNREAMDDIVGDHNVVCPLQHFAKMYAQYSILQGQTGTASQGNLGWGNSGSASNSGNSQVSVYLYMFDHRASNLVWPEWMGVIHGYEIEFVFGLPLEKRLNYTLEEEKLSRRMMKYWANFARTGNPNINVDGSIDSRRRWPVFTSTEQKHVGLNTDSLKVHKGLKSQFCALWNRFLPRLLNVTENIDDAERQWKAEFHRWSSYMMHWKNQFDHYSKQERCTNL
In data set [2] the target is Amyloid-beta precursor protein (Homo sapiens) (UniProt P05067). Briefly: Inhibition of self induced amyloid-beta (1 to 40) (unknown origin) aggregation at 100 uM incubated for 2 hrs by ThT fluorescence based spectrofluorimetric analysis relative to control.
Amyloid-beta precursor protein (Homo sapiens), sequence (P05067 whole entry): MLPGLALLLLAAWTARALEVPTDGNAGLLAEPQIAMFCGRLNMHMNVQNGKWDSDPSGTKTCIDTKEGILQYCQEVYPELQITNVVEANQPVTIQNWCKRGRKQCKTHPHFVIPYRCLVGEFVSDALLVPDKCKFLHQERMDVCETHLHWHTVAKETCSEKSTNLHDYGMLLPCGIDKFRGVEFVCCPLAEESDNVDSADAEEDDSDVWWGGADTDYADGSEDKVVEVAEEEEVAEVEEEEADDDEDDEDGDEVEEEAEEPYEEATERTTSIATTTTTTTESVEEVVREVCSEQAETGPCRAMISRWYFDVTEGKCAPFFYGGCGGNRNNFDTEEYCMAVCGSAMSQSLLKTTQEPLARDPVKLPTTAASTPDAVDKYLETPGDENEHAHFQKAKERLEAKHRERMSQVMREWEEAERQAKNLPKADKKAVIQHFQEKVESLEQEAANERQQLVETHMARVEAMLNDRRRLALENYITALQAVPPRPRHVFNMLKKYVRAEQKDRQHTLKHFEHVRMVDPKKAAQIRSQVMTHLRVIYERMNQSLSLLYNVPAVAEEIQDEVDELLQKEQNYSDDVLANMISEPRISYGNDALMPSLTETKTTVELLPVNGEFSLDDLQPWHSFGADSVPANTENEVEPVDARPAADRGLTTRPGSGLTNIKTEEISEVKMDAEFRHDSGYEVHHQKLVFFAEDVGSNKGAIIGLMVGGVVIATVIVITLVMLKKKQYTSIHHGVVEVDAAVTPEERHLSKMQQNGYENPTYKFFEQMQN
The target in data set [3] is T2, Cholinesterase (Homo sapiens, UniProt P06276). Briefly: Inhibition of BChE (unknown origin) at 10 uM relative to control.
T2 sequence (P06276 whole entry): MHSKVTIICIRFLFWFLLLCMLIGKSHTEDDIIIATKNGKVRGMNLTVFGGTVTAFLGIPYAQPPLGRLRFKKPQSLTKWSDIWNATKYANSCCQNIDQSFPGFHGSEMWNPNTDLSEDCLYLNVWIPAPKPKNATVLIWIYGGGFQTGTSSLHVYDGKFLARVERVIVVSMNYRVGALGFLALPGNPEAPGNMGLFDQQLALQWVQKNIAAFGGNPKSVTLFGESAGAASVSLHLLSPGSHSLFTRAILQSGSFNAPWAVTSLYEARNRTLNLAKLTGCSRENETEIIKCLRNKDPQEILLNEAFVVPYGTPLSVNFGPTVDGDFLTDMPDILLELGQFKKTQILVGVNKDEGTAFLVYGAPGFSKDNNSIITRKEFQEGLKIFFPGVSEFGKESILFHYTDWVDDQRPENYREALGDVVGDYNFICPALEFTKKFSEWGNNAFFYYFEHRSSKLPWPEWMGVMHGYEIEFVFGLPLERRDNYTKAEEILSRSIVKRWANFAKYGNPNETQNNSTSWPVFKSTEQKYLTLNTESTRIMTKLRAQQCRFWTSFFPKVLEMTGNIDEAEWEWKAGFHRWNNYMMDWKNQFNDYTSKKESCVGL
In data set [4] the target is Acetylcholinesterase (Homo sapiens) (UniProt P22303). Kind of data set: Inhibition of AChE (unknown origin) at 10 uM relative to control.
Acetylcholinesterase (Homo sapiens), sequence (P22303 whole entry): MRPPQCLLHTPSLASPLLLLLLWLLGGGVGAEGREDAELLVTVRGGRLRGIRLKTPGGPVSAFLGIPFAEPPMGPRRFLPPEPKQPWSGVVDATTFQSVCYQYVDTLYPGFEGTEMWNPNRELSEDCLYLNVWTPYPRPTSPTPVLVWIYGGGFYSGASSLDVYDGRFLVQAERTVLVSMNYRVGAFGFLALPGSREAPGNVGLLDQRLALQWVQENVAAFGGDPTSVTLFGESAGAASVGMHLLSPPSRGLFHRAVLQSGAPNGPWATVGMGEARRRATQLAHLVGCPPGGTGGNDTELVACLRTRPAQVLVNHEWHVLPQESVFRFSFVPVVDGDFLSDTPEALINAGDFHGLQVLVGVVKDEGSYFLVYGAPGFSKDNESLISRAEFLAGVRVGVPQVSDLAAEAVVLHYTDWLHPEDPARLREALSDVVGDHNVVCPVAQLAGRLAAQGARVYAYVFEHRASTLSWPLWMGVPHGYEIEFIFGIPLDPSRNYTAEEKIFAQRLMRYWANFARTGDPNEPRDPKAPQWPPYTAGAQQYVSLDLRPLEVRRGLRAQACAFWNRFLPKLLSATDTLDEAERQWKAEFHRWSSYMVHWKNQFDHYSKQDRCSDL
The target of data set [5] is Amyloid-beta precursor protein (Homo sapiens) (UniProt P05067). Briefly: Inhibition of amyloid beta (unknown origin) aggregation at 100 uM relative to control.
Data set [6] deals with Acetylcholinesterase (Electrophorus electricus) (UniProt O42275). Briefly: Inhibition of electric eel AChE using acetylthiocholine iodide as substrate at 20 uM preincubated for 20 mins followed by substrate addition and measured after 10 mins by DTNB-reagent based Ellman's method relative to control. The settings on record: time 30.0 min.
Acetylcholinesterase (Electrophorus electricus), sequence (O42275 24-633 limits assumed): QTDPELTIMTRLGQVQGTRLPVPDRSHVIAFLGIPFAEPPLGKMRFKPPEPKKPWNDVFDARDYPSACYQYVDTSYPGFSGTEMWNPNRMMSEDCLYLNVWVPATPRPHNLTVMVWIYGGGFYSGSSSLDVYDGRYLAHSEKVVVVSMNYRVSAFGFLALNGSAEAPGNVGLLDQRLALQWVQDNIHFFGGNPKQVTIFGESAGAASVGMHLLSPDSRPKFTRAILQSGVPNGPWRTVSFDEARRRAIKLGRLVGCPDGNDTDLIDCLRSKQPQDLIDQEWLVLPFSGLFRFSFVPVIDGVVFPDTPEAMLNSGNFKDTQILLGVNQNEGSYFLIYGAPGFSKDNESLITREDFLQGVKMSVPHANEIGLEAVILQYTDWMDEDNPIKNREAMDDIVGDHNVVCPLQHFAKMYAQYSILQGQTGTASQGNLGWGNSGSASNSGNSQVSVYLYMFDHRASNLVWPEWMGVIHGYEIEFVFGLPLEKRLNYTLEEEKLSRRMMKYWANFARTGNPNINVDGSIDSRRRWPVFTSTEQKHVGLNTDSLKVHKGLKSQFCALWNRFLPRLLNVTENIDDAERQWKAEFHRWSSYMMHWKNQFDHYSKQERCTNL
Data set [7] deals with SH-SY5Y. Kind of data set: Cytoprotective activity against H2O2-induced oxidative stress in human SH-SY5Y cells assessed as increase in cell viability at 100 uM incubated for 24 hrs by MTT assay. It counts as functional, cell-based.
In data set [8] the target is Cholinesterase (Equus caballus) (UniProt P81908). Kind of data set: Inhibition of equine serum BuChE using butyrylthiocholine iodide as substrate at 20 uM preincubated for 20 mins followed by substrate addition and measured after 10 mins by DTNB based Ellman's method relative to control. The settings on record: time 30.0 min.
Cholinesterase (Equus caballus), sequence (P81908 whole entry): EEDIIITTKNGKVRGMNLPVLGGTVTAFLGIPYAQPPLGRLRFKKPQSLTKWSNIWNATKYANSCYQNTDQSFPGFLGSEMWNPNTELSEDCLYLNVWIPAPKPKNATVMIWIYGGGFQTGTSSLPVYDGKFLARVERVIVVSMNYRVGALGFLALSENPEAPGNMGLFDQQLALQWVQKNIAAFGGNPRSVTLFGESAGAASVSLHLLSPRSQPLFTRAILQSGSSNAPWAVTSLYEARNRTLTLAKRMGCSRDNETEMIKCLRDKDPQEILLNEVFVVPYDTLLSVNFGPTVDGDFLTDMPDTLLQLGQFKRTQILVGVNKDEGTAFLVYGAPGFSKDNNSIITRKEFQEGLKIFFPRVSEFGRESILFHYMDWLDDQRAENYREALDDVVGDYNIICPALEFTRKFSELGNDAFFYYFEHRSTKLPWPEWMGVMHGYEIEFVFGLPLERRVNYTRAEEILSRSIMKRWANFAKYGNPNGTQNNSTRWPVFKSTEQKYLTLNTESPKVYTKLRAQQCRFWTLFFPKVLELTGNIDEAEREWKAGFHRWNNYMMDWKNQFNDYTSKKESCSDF
Data set [9] is described as follows: Aqueous solubility of compound in phosphate buffered solution at pH 7.4 incubated for 1 hr under shaking condition by HPLC analysis. It counts as physicochemical.
For data set [10], the target named is Cholinesterase (Equus caballus) (UniProt P81908). Briefly: Mixed-type inhibition of equine serum BChE using varying concentrations of butyrylthiocholine iodide as substrate assessed as change in Km and Vmax at 0.05 to 0.5 uM by Lineweaver-Burk plot analysis. The settings on record: dose 0.05-0.5 µM.
Data set [11] deals with SH-SY5Y. Kind of data set: Cytoprotective activity against H2O2-induced oxidative stress in human SH-SY5Y cells assessed as increase in cell viability at 20 uM incubated for 24 hrs by MTT assay. It is filed as functional, cell-based. (In general: Tetrazolium dyes change colour on reduction, which living cells bring about.)
Data set [12] is described as follows: Cytotoxicity against human SH-SY5Y cells assessed as reduction in cell viability incubated for 24 hrs by MTT assay. It counts as toxicity, cell-based.
The target of data set [13] is T2, Cholinesterase. Briefly: Inhibition of human BuChE using butyrylthiocholine iodide as substrate preincubated for 20 mins followed by substrate addition and measured after 10 mins by DTNB based Ellman's method.
The subject of data set [14] is SH-SY5Y. Kind of data set: Protection against NMDA-induced cytotoxicity in human SH-SY5Y cells assessed as increase in cell viability at 1 uM incubated for 24 hrs by MTT assay. It is filed as functional, cell-based.
In data set [15] the target is T3, serum albumin (Homo sapiens, UniProt P02768). Briefly: Binding affinity to human serum albumin assessed as dissociation rate constant (Koff) by SPR analysis. The settings on record: read-out: K. It counts as ADME. On the technique in general: In SPR one partner is held on a chip, and binding of the other changes the refractive index at the surface.
T3 sequence (P02768 whole entry): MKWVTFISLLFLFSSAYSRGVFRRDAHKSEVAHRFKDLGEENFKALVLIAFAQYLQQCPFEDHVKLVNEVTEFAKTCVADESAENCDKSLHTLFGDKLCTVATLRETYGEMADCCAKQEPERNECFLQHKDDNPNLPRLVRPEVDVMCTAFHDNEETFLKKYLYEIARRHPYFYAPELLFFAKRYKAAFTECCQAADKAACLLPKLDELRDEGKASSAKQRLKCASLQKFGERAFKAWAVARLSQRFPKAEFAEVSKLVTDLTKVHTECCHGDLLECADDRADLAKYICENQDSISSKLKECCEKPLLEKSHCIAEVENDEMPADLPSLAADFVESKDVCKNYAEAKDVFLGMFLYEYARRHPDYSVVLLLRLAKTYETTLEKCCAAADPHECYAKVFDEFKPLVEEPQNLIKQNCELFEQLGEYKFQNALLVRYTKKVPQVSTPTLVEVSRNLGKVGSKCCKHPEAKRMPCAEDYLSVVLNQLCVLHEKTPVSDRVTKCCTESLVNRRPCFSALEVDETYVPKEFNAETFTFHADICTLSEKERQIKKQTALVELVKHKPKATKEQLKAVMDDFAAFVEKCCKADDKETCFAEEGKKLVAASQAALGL
The target in data set [16] is Acetylcholinesterase (Homo sapiens) (UniProt P22303). Briefly: Inhibition of human AChE using acetylthiocholine iodide as substrate at 20 uM preincubated for 20 mins followed by substrate addition and measured after 10 mins by DTNB-reagent based Ellman's method relative to control. The following applies: time 30.0 min.
Data set [17] in a line: Antioxidant activity assessed as ROS scavenging activity relative to control. It counts as functional.
Data set [18] addresses T3, serum albumin. Briefly: Binding affinity to human serum albumin assessed as residence time by SPR analysis. It is filed as ADME.
The target of another data set is Albumin (Homo sapiens, UniProt P02768). Briefly: Binding affinity to human serum albumin assessed as equilibrium dissociation constant by SPR analysis. It counts as ADME.
Albumin, sequence (P02768 whole entry): as above
Data set [19] addresses T1, Cholinesterase.
Description: Binding affinity to equine BChE in phosphate buffer at pH 8 assessed as equilibrium dissociation constant by SPR analysis
The test system of a further data set is equine serum BuChE. Briefly: Selectivity ratio of IC50 for cytotoxicity against human SH-SY5Y cells to IC50 for inhibition of equine serum BuChE using butyrylthiocholine iodide as substrate. The following applies: probe butyrylthiocholine iodide, read-out: Ratio IC50. It counts as toxicity, cell-based.
Data set [20] concerns SH-SY5Y. Briefly: Protection against NMDA-induced cytotoxicity in human SH-SY5Y cells assessed as increase in cell viability at 5 to 20 uM incubated for 24 hrs by MTT assay. It counts as functional, cell-based. The settings on record: dose 5-20 µM.
For data set [21], the target named is T1, Cholinesterase. Briefly: Mixed-type inhibition of equine serum BChE using varying concentrations of butyrylthiocholine iodide as substrate assessed as inhibition constant by Lineweaver-Burk plot analysis.
Data set [22] deals with SH-SY5Y. Kind of data set: Cytoprotective activity against H2O2-induced oxidative stress in human SH-SY5Y cells assessed as increase in cell viability incubated for 24 hrs by MTT assay. It is filed as functional, cell-based.

T1 sequence (P81908 whole entry): as the sequence (P81908 whole entry) above

Broadly, the IC50 is the midpoint of a concentration-inhibition curve. In the case of `O=C1NCCCc2c1c1ccccc1n2CCCCCCCN1CCN(c2ccccc2F)CC1`, the IC50 was 906 nM against Cholinesterase [1] and 4940 nM at Acetylcholinesterase.
One may read the inhibition as the relative decrease from the control value, in per cent. As for `O=C1NCCCc2c1c1ccccc1n2CCCCCN1CCN(Cc2ccccc2)CC1`, the IC50 at Cholinesterase [1] was found to be 430 nM; against Acetylcholinesterase it was 1830 nM. For the same compound, in data set [2], the inhibition came to 28%.
In the case of `CC(C)NCCCn1c2c(c3ccccc31)C(=O)NCCC2`, the inhibition against Cholinesterase [3] is less than 40%; in [4], less than 40%; in data set [5], 50%.
Compound `O=C1NCCCc2c1c1ccccc1n2CCCCCCCN1CCN(Cc2cccnc2)CC1` gave a 50% inhibitory concentration (IC50) against Cholinesterase [1] of 466 nM. In data set [6], this compound came in with an inhibition of 40%.
On to `O=C1NCCCc2c1c1ccccc1n2CCCCN1CCN(Cc2ccccc2)CC1`, for which the concentration for half-maximal inhibition (IC50) against Cholinesterase [1] was 2640 nM; against Acetylcholinesterase it was 1480 nM.
On the same counts, the results for `CN1CCN(CCCCCCCn2c3c(c4ccccc42)C(=O)NCCC3)CC1` are 10000 nM and 15000 nM.
As for `O=c1c(O)c(-c2ccc(O)c(O)c2)oc2cc(O)cc(O)c12`, in the data set on SH-SY5Y [7], the result was Active.
Regarding `O=C1NCCCc2c1c1ccccc1n2CCN1CCN(Cc2ccccc2)CC1`, the IC50 against Cholinesterase [1] worked out at 6590 nM; on Acetylcholinesterase, 6570 nM. Further, the inhibition in [2] amounted to 13%.
Regarding `CN1CCN(CCCCCn2c3c(c4ccccc42)C(=O)NCCC3)CC1`, the inhibition in [6] and in [8] was 20% throughout.
Take `O=C1NCCCc2c1c1ccccc1n2CCCCCCCN1CCN(Cc2ccccc2)CC1`: the IC50 at Cholinesterase [1] worked out at 396 nM; against Acetylcholinesterase, 402 nM.
The term solubility denotes the dissolved amount per volume that the medium holds. The low end stands for little dissolved substance, the high end for much dissolved substance. Broadly, the residence time is the mean lifetime of the complex, commonly the reciprocal of the off-rate. By Kd is commonly meant the equilibrium constant for the complex coming apart. The Ki is the equilibrium dissociation constant of an inhibitor or competing ligand from its target. With `O=C1NCCCc2c1c1ccccc1n2CCCCCCCN1CCN(CCc2ccccc2)CC1`, in data set [9], the solubility at 1 h is 6.1 µg/mL (≈ 12.5 µM). The inhibition entry in data set [10] is “Active”. Further, the result in the data set with SH-SY5Y [11] and in the data set on SH-SY5Y [20] was inactive. In data set [12], the IC50 at 24 h came out at 60000 nM. Also, the IC50 against Cholinesterase [13] stood at 72 nM; at Cholinesterase [1], 65 nM; at Acetylcholinesterase, 5900 nM. In the data set on SH-SY5Y [14], the outcome was Active. The koff at serum albumin [15] came to 0.151 s⁻¹. The inhibition in [2] amounted to 62%; in data set [16] it was 39%. Moreover, the Activity in data set [17] was less than 10%. Besides, the residence time at serum albumin [18] is 0.1 min. Besides, the figures for the Kd at Albumin and on Cholinesterase [19] were 3530 nM and 62 nM, respectively. In addition, in the data set with equine serum BuChE, the selectivity ratio stood at 800. On Cholinesterase [21], the inhibition constant (Ki) is 27 nM.
With `O=C1NCCCc2c1c1ccccc1n2CCCCCN1CCN(c2ccccc2)CC1`, 5520 nM corresponded to half-maximal inhibition on Cholinesterase [1] (IC50). Besides, in [6], the inhibition stood at 31%.
The compound `O=C1NCCCc2c1c1ccccc1n2CCCCCN1CCN(c2ccccc2F)CC1` gave an IC50 on Cholinesterase [1] of 1000 nM. Further, the inhibition in [6] turned out to be 35%.
Consider `O=C1NCCCc2c1c1ccccc1n2CCCCCCCN1CCN(c2ccccc2)CC1`, for which the IC50 at Cholinesterase [1] is 765 nM. In addition, the koff on serum albumin [15] came to 0.069 s⁻¹. Also, the residence time at serum albumin [18] was 0.25 min. Moreover, the Kd at Albumin was found to be 1640 nM; on Cholinesterase [19], 759 nM. Besides, the inhibition in data set [6] came out at 17%.
Turning to `O=C1NCCCc2c1c1ccccc1n2CCCCCN1CCN(Cc2cccnc2)CC1`, the IC50 at Cholinesterase [1] was found to be 4920 nM. The same compound registered an inhibition in data set [6] of 37%.
On Cholinesterase [1], `O=C1NCCCc2c1c1ccccc1n2CCCCCN1CCN(c2ccc(F)cc2)CC1` had a concentration for half-maximal inhibition (IC50) of 1780 nM. Besides, in data set [6], the inhibition amounted to 28%.
The matching figures for `O=C1NCCCc2c1c1ccccc1n2CCCCCCCN1CCN(c2ccc(F)cc2)CC1`: 10000 nM and 10%.
`O=C1NCCCc2c1c1ccccc1n2CCN1CCN(CCc2ccccc2)CC1` returned a concentration for half-maximal inhibition (IC50) against Cholinesterase [1] of 5790 nM. Besides, the inhibition in [2] was 55%; in data set [6], 8%.
By EC50 is commonly meant the midpoint of the concentration-response curve. With `O=C1NCCCc2c1c1ccccc1n2CCCCCN1CCN(CCc2ccccc2)CC1`, the solubility at 1 h in data set [9] was found to be 169 µg/mL (≈ 368 µM). Further, the half-maximal inhibitory concentration (IC50) at 24 h in [12] turned out to be 88000 nM. Further, the IC50 at Cholinesterase [13] was determined as 190 nM; at Cholinesterase [1], 163 nM. The concentration for a half-maximal effect (EC50) in the data set on SH-SY5Y [22] was roughly 1500 nM. Further, the Activity entry in the data set with SH-SY5Y [22] (dose 1-20 µM) is “Dose-Dependent Effect”; in [17], less than 10%. Further, the outcome in the data set on SH-SY5Y [14] was Active. For the same compound, on serum albumin [15], the koff came out at 0.092 s⁻¹. Besides, the inhibition in data set [2] is 14%; in data set [16], 20%; in data set [6] it was 39%. Also, on serum albumin [18], the residence time was 0.183 min. Also, the Kd came out at 6700 nM on Albumin and 148 nM at Cholinesterase [19]. Moreover, the selectivity ratio with equine serum BuChE was 500. Further, the result in the data set on SH-SY5Y [20] was inactive.
In turn, `O=C1NCCCc2c1c1ccccc1n2CCCCCN1CCN(c2ccccn2)CC1` displayed a half-inhibitory concentration (IC50) at Cholinesterase [1] of 717 nM. The inhibition in data set [6] was 13%.
`O=C1NCCCc2c1c1ccccc1n2CCCCN1CCN(CCc2ccccc2)CC1` showed an IC50 against Cholinesterase [1] of 528 nM. Further, the inhibition in data set [2] turned out to be 21%; in [6], 36%.
At Cholinesterase [1], `O=C1NCCCc2c1c1ccccc1n2CCCCCN1CCN(Cc2ccncc2)CC1` yielded an IC50 of 1920 nM. This compound registered an inhibition in data set [6] of 2%.
Regarding `O=C1NCCCc2c1c1ccccc1n2CCc1ccccc1`, the koff at serum albumin [15] amounted to 0.017 s⁻¹. For the same compound, the residence time on serum albumin [18] was 1 min. The Kd on Albumin worked out at 850 nM. In [5], the inhibition was less than 40%.
On to `O=C1NCCCc2c1c1ccccc1n2CCCCCCCN1CCN(Cc2ccncc2)CC1`, for which the IC50 against Cholinesterase [1] is 1860 nM; at Acetylcholinesterase it was 7060 nM.
The matching figures for `O=C1NCCCc2c1c1ccccc1n2CCCCCCCN1CCN(c2ccccn2)CC1`: 2100 nM and 9100 nM.
